Assay results as given in ChEMBL document CHEMBL1212738, “Phenotypic and genotypic characterization of Enterobacteriaceae with decreased susceptibility to carbapenems: results from large hospital-based surveillance studies in China” (2010).
In brackets after ≈: the same amount, converted by molar mass.

How the values were obtained:
Klebsiella pneumoniae [1] = test: Antimicrobial activity against Klebsiella pneumoniae ZJ68T expressing CTX-M-15 by CLSI method; type: functional
Klebsiella pneumoniae [2] = test: Antimicrobial activity against carbapenem-resistant Klebsiella pneumoniae GZ83 deficient in SHV-11, CTX-M-14, ompK35/36 by CLSI method; type: functional
Klebsiella pneumoniae [3] = test: Antimicrobial activity against carbapenem-resistant Klebsiella pneumoniae PU104 deficient in TEM-1, SHV-11, CTX-M-15, qnrS1, ompK35/36 by CLSI method; type: functional
Escherichia coli [4] = test: Antimicrobial activity against carbapenem-resistant Escherichia coli PU101 deficient in TEM-1, CTX-M-14, CMY-2, ompC by CLSI method; type: functional
Enterobacter cloacae [5] = test: Antimicrobial activity against carbapenem-resistant Enterobacter cloacae GX24 deficient in TEM-1, DHA-1, aac(6')-Ib, ompC by CLSI method; type: functional
Klebsiella aerogenes [6] = test: Antimicrobial activity against carbapenem-resistant Enterobacter aerogenes PU41 deficient in CTX-M-14, DHA-1, qnrS1, ompC DEc, ompF by CLSI method; type: functional
Klebsiella aerogenes [7] = test: Antimicrobial activity against Enterobacter aerogenes PU41T expressing CTX-M-14, DHA-1, qnrS1 by CLSI method; type: functional
Escherichia coli [8] = test: Antimicrobial activity against carbapenem-resistant Escherichia coli HX74 deficient in TEM-1, CTX-M-14, CTX-M-3, aac(6')-Ibcr, ompC/F by CLSI method; type: functional
Enterobacter cloacae [9] = test: Antimicrobial activity against carbapenem-resistant Enterobacter cloacae GX56 deficient in ompC and expressing low levels of ompF DE by CLSI method; type: functional
Klebsiella aerogenes [10] = test: Antimicrobial activity against carbapenem-resistant Enterobacter aerogenes WH85 deficient in TEM-1, CTX-M-3, ompC/F by CLSI method; type: functional
Enterobacter cloacae [11] = test: Antimicrobial activity against carbapenem-resistant Enterobacter cloacae NJ89 deficient in CTX-M-14, ompC/F by CLSI method; type: functional
Citrobacter freundii [12] = test: Antimicrobial activity against Citrobacter freundii RJ78 expressing CMY-2, qnrA1, aac(6')-Ib-cr, ompC by CLSI method; type: functional
Klebsiella pneumoniae [13] = test: Antimicrobial activity against carbapenem-resistant Klebsiella pneumoniae ZJ18 deficient in KPC-2, SHV-28, DHA-1, ompK35 by CLSI method; type: functional
Klebsiella pneumoniae [14] = test: Antimicrobial activity against Klebsiella pneumoniae ZJ18T expressing KPC-2, DHA-1 by CLSI method; type: functional
Klebsiella pneumoniae [15] = test: Antimicrobial activity against Klebsiella pneumoniae ZJ70T expressing KPC-2 by CLSI method; type: functional
Klebsiella pneumoniae [16] = test: Antimicrobial activity against carbapenem-resistant Klebsiella pneumoniae ZJ71 deficient in KPC-2, TEM-1, SHV-11, CTX-M-14, ompK35 by CLSI method; type: functional
Klebsiella pneumoniae [17] = test: Antimicrobial activity against Klebsiella pneumoniae ZJ71T expressing KPC-2 by CLSI method; type: functional
Klebsiella pneumoniae [18] = test: Antimicrobial activity against Klebsiella pneumoniae ZJ99 expressing KPC-2, CTX-M-3, qnrS1, ompK35 DE by CLSI method; type: functional
Escherichia coli [19] = test: Antimicrobial activity against Escherichia coli ZJ86T expressing KPC-2 by CLSI method; type: functional
Escherichia coli [20] = test: Antimicrobial activity against Escherichia coli ZJ87 expressing KPC-2, TEM-1, ompC by CLSI method; type: functional
Klebsiella pneumoniae [21] = test: Antimicrobial activity against carbapenem-resistant Klebsiella pneumoniae FZ47 deficient in IMP-8, TEM-1, SHV-11, CTX-M-14, qnrB2, aac(6')-Ib, ompK35/36 by CLSI method; type: functional
Klebsiella pneumoniae [22] = test: Antimicrobial activity against carbapenem-resistant Klebsiella pneumoniae FZ49 deficient in IMP-8, TEM-1, SHV-11, CTX-M-14, qnrB2, aac(6')-Ib, ompK35/36 by CLSI method; type: functional
Klebsiella pneumoniae [23] = test: Antimicrobial activity against Klebsiella pneumoniae GZ64T expressing IMP-4 by CLSI method; type: functional
Klebsiella pneumoniae [24] = test: Antimicrobial activity against Klebsiella pneumoniae WH77 expressing IMP-4, TEM-1, SHV-14, CTX-M-3, qnrS1 by CLSI method; type: functional
Citrobacter freundii [25] = test: Antimicrobial activity against Citrobacter freundii SZ62 expressing IMP-4, TEM-1, CMY-2, qnrS1, aac(6')-Ib-cr by CLSI method; type: functional
Enterobacter cloacae [26] = test: Antimicrobial activity against carbapenem-resistant Enterobacter cloacae SZ92 deficient in IMP-4, TEM-1, CTX-M-14, DHA-1, qnrB10/B4-like, aac(6')-Ib, ompC by CLSI method; type: functional
Enterobacter cloacae [27] = test: Antimicrobial activity against carbapenem-resistant Enterobacter cloacae WH103 deficient in IMP-4, TEM-1, CTX-M-3, qnrS1, ompC by CLSI method; type: functional
Klebsiella pneumoniae [28] = test: Antimicrobial activity against carbapenem-resistant Klebsiella pneumoniae CY1 deficient in SHV-11, DHA-1, ompK35/36 by CLSI method; type: functional
Klebsiella pneumoniae [29] = test: Antimicrobial activity against carbapenem-resistant Klebsiella pneumoniae PU4 deficient in SHV-1, DHA-1, ompK35/36 by CLSI method; type: functional
Klebsiella pneumoniae [30] = test: Antimicrobial activity against carbapenem-resistant Klebsiella pneumoniae PU5 deficient in SHV-12, DHA-1, aac(6')-Ib-cr, ompK35/36 by CLSI method; type: functional
Klebsiella pneumoniae [31] = test: Antimicrobial activity against carbapenem-resistant Klebsiella pneumoniae PU8 deficient in SHV-11, DHA-1, aac(6')-Ib-cr, ompK35/36 by CLSI method; type: functional
Klebsiella pneumoniae [32] = test: Antimicrobial activity against carbapenem-resistant Klebsiella pneumoniae PU105 deficient TEM-1, SHV-12, CTX-M-14, DHA-1, qnrB10/B4-like, aac(6')-Ib-cr, ompK35/36 by CLSI method; type: functional
Escherichia coli [33] = test: Antimicrobial activity against Escherichia coli C600 transconjugant SZ62T expressing IMP-4, qnrS1by CLSI method
Escherichia coli [34] = test: Antimicrobial activity against Escherichia coli C600 transconjugant GZ66T expressing SHV-11, DHA-1 by CLSI method
Klebsiella pneumoniae [35] = test: Antimicrobial activity against carbapenem-resistant Klebsiella pneumoniae ZJ68 deficient in CTX-M-15, ompK35/36 by CLSI method
Escherichia coli [36] = test: Antimicrobial activity against carbapenem-resistant Escherichia coli ZJ86 expressing KPC-2, TEM-1 with ompC loss by CLSI method
Escherichia coli [37] = test: Antimicrobial activity against Escherichia coli C600 transconjugant WH77T expressing IMP-4, TEM-1, CTX-M-3, qnrS1 by CLSI method
Escherichia coli [38] = test: Antimicrobial activity against Escherichia coli PU102T expressing TEM-1, CTX-M-14, CMY-2 by CLSI method; type: functional
Escherichia coli [39] = test: Antimicrobial activity against Escherichia coli HX74T expressing CTX-M-3 by CLSI method; type: functional
Escherichia coli [40] = test: Antimicrobial activity against Escherichia coli C600 by CLSI method; type: functional

Row | Compound | MIC (Klebsiella pneumoniae [1]) | MIC (Klebsiella pneumoniae [2]) | MIC (Klebsiella pneumoniae [3]) | MIC (Enterobacter cloacae [5]) | MIC (Klebsiella aerogenes [6]) | MIC (Klebsiella aerogenes [7]) | MIC (Enterobacter cloacae [9]) | MIC (Klebsiella aerogenes [10]) | MIC (Citrobacter freundii [12]) | MIC (Klebsiella pneumoniae [13]) | MIC (Klebsiella pneumoniae [14]) | MIC (Klebsiella pneumoniae [15]) | MIC (Klebsiella pneumoniae [17]) | MIC (Escherichia coli [19]) | MIC (Escherichia coli [20]) | MIC (Klebsiella pneumoniae [21]) | MIC (Klebsiella pneumoniae [22]) | MIC (Klebsiella pneumoniae [23]) | MIC (Citrobacter freundii [25]) | MIC (Enterobacter cloacae [26]) | also measured
1 | C[C@@H](O)[C@H]1C(=O)N2C(C(=O)O)=C(SCCNC=N)C[C@H]12 [IMIPENEM ANHYDROUS] | 0.5 µg/mL (≈ 1.67 µM) | 32 µg/mL (≈ 107 µM) | 2 µg/mL (≈ 6.68 µM) | 4 µg/mL (≈ 13.4 µM) | 32 µg/mL (≈ 107 µM) | 0.5 µg/mL (≈ 1.67 µM) | 4 µg/mL (≈ 13.4 µM) | 8 µg/mL (≈ 26.7 µM) | 8 µg/mL (≈ 26.7 µM) | 16 µg/mL (≈ 53.4 µM) | 2 µg/mL (≈ 6.68 µM) | 16 µg/mL (≈ 53.4 µM) | 8 µg/mL (≈ 26.7 µM) | 8 µg/mL (≈ 26.7 µM) | 8 µg/mL (≈ 26.7 µM) | 8 µg/mL (≈ 26.7 µM) | 8 µg/mL (≈ 26.7 µM) | 2 µg/mL (≈ 6.68 µM) | 4 µg/mL (≈ 13.4 µM) | 8 µg/mL (≈ 26.7 µM) | MIC (Escherichia coli [4]): 32 µg/mL (≈ 107 µM); MIC (Escherichia coli [8]): 4 µg/mL (≈ 13.4 µM); MIC (Enterobacter cloacae [11]): 16 µg/mL (≈ 53.4 µM); MIC (Klebsiella pneumoniae [16]): 16 µg/mL (≈ 53.4 µM); MIC (Klebsiella pneumoniae [18]): 16 µg/mL (≈ 53.4 µM); MIC (Klebsiella pneumoniae [24]): 2 µg/mL (≈ 6.68 µM); MIC (Enterobacter cloacae [27]): 8 µg/mL (≈ 26.7 µM); MIC (Klebsiella pneumoniae [28]): 32 µg/mL (≈ 107 µM); MIC (Klebsiella pneumoniae [29]): 16 µg/mL (≈ 53.4 µM); MIC (Klebsiella pneumoniae [30]): 16 µg/mL (≈ 53.4 µM); MIC (Klebsiella pneumoniae [31]): 16 µg/mL (≈ 53.4 µM); MIC (Klebsiella pneumoniae [32]): 32 µg/mL (≈ 107 µM); MIC (Escherichia coli [33]): 4 µg/mL (≈ 13.4 µM); MIC (Escherichia coli [34]): 0.5 µg/mL (≈ 1.67 µM); MIC (Klebsiella pneumoniae [35]): 4 µg/mL (≈ 13.4 µM); MIC (Escherichia coli [36]): 8 µg/mL (≈ 26.7 µM); MIC (Escherichia coli [37]): 4 µg/mL (≈ 13.4 µM)
2 | C[C@@H](O)[C@H]1C(=O)N2C(C(=O)O)=C(S[C@@H]3CN[C@H](C(=O)N(C)C)C3)[C@H](C)[C@H]12 [MEROPENEM] | 0.032 µg/mL (≈ 0.0834 µM) | 8 µg/mL (≈ 20.9 µM) | 8 µg/mL (≈ 20.9 µM) | 2 µg/mL (≈ 5.22 µM) | 8 µg/mL (≈ 20.9 µM) | 0.032 µg/mL (≈ 0.0834 µM) | 4 µg/mL (≈ 10.4 µM) | 8 µg/mL (≈ 20.9 µM) | 2 µg/mL (≈ 5.22 µM) | 8 µg/mL (≈ 20.9 µM) | 1 µg/mL (≈ 2.61 µM) | 8 µg/mL (≈ 20.9 µM) | 4 µg/mL (≈ 10.4 µM) | 8 µg/mL (≈ 20.9 µM) | 8 µg/mL (≈ 20.9 µM) | 2 µg/mL (≈ 5.22 µM) | 2 µg/mL (≈ 5.22 µM) | 2 µg/mL (≈ 5.22 µM) | 4 µg/mL (≈ 10.4 µM) | 8 µg/mL (≈ 20.9 µM) | MIC (Escherichia coli [38]): 0.032 µg/mL (≈ 0.0834 µM); MIC (Escherichia coli [39]): 0.064 µg/mL (≈ 0.167 µM); MIC (Enterobacter cloacae [27]): 8 µg/mL (≈ 20.9 µM); MIC (Escherichia coli [40]): 0.03 µg/mL (≈ 0.0782 µM); MIC (Klebsiella pneumoniae [29]): 4 µg/mL (≈ 10.4 µM); MIC (Klebsiella pneumoniae [30]): 8 µg/mL (≈ 20.9 µM); MIC (Klebsiella pneumoniae [31]): 8 µg/mL (≈ 20.9 µM); MIC (Escherichia coli [33]): 4 µg/mL (≈ 10.4 µM); MIC (Escherichia coli [34]): 0.032 µg/mL (≈ 0.0834 µM); MIC (Klebsiella pneumoniae [35]): 8 µg/mL (≈ 20.9 µM); MIC (Escherichia coli [36]): 8 µg/mL (≈ 20.9 µM); MIC (Escherichia coli [37]): 4 µg/mL (≈ 10.4 µM)
3 | POLYMYXIN B | 0.5 µg/mL | 1 µg/mL | 0.5 µg/mL | 2 µg/mL | 0.5 µg/mL | 0.25 µg/mL | 0.5 µg/mL | 0.5 µg/mL | 2 µg/mL | 0.5 µg/mL | 0.25 µg/mL | 0.25 µg/mL | 0.5 µg/mL | 0.5 µg/mL | 0.5 µg/mL | 1 µg/mL | 1 µg/mL | 0.5 µg/mL | 0.5 µg/mL | 0.5 µg/mL | MIC (Escherichia coli [4]): 0.5 µg/mL; MIC (Escherichia coli [38]): 0.25 µg/mL; MIC (Escherichia coli [8]): 0.5 µg/mL; MIC (Escherichia coli [39]): 0.25 µg/mL; MIC (Enterobacter cloacae [11]): 0.5 µg/mL; MIC (Klebsiella pneumoniae [16]): 1 µg/mL; MIC (Klebsiella pneumoniae [18]): 1 µg/mL; MIC (Klebsiella pneumoniae [24]): 1 µg/mL; MIC (Enterobacter cloacae [27]): 0.5 µg/mL; MIC (Escherichia coli [40]): 0.5 µg/mL; MIC (Klebsiella pneumoniae [28]): 1 µg/mL; MIC (Klebsiella pneumoniae [29]): 0.5 µg/mL; MIC (Klebsiella pneumoniae [30]): 1 µg/mL; MIC (Klebsiella pneumoniae [31]): 1 µg/mL; MIC (Klebsiella pneumoniae [32]): 32 µg/mL
